Measured values as given in ChEMBL document CHEMBL1201862, “PubChem BioAssay data set” (2004).
The source made the active and inactive calls.

What was measured:
Coagulation factor XII = target: T1, Coagulation factor XII (Homo sapiens, UniProt P00748); assay: activated coagulation factor XII inhibitor potency, concentration-effect curve, cell-free (AID 716); assay type: functional
T1 sequence (P00748 whole entry): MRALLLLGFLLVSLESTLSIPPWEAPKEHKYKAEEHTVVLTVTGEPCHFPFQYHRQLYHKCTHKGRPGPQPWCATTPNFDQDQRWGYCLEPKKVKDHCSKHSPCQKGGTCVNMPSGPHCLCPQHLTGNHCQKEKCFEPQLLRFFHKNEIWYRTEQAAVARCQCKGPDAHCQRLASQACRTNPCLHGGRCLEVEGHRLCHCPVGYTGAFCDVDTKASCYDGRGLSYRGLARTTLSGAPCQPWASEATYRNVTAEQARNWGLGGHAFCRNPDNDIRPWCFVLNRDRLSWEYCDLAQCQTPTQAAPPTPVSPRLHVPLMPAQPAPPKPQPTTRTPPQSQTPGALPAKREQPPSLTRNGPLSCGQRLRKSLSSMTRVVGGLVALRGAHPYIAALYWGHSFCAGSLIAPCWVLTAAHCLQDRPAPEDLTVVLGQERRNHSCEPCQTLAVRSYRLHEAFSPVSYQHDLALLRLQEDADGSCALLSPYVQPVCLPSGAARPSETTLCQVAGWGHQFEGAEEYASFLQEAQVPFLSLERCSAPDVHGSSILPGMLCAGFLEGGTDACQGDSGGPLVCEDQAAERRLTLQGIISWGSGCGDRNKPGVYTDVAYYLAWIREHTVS

Paired box protein Pax-8 = Paired box protein Pax-8 (Homo sapiens, UniProt Q06710); assay: PAX8 transcriptional activity inhibition in RMG-I – RMG-I cells, luciferase, cherry-pick, dose response (AID 687027); assay type: functional, cell-based;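 also: luciferase reporter driven by Pax8 target thyroperoxidase promoter measured by SteadyGlo luminescence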
Sequence of Paired box protein Pax-8 (Q06710 whole entry): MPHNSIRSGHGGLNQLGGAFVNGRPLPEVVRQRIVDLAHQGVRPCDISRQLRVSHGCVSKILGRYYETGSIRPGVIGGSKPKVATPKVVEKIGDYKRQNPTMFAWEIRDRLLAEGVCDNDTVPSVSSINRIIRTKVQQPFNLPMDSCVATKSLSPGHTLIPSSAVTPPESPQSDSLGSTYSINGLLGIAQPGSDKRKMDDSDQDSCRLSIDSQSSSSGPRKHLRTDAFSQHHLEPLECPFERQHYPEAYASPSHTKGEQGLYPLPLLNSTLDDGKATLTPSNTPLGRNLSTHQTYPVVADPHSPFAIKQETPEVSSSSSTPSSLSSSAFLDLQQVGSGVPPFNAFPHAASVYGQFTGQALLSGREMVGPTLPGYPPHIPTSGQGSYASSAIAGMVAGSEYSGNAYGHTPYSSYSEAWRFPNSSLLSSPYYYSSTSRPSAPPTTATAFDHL

[1] = reduced cellular PGC1a acetyl-lysine signal – cell-based, cherry-picked samples, dose response (AID 720514); assay type: functional;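 also: potency may reflect raised or lowered acetylation signal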
[2] = A549 cell cytotoxicity, dose response, cytotoxicity control, plate reader, cherry-pick, antagonist series (AID 743412); assay type: functional, cell-based
[3] = toxicity toward HepG2 liver cells – cell-based, plate reader, cherry-pick, antagonist series, cytotoxicity control, dose response (AID 743416); assay type: functional
[4] = blockers of bursicon-stimulated LGR2 cAMP reporter – cell-based, HEK293, CRE-luciferase reporter, cherry pick, set 2, dose response (AID 743343); assay type: functional;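 also: transfected cells were stimulated with diluted bursicon conditioned medium after compound addition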
[5] = blockade of melanocortin 4 receptor signaling – cell-based, plate reader, cherry pick, counter-screen for LGR2 antagonist project, dose response (AID 743444); assay type: functional;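 also: transfected HEK 293 cells stimulated with alpha-MSH peptide; potency of inhibitors of the alpha-MSH evoked signal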
[6] = viability loss in HEK293 cells – cell-based, plate reader, cherry-picked samples, cytotoxicity control, dose response (AID 743446); assay type: functional
[7] = target: Heat shock protein HSP 90-alpha (Homo sapiens, UniProt P07900); assay type: functional, organism-based
INS1 = assay: INS-1E survival protection against cytokine death – cell-based, luminescence, retest, dose response (AID 449756); assay type: functional; details: Rattus norvegicus;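 also: cell death triggered by IL-1 beta plus TNF-alpha plus IFN-gamma mixture; protective hits raise ATP signal compared with cytokine alone wells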
[8] = Fluorescence-based cell-based high throughput dose response assay for inhibitors of the interaction of nucleotide-binding oligomerization domain containing 2 (NOD2) and the receptor-interacting serine-threonine kinase 2 (RIPK2).; assay type: functional; details: Homo sapiens
[9] = target: DNA dC->dU-editing enzyme APOBEC-3A (Homo sapiens, UniProt P31941); assay: Dose Response confirmation of small molecule APOBEC3A DNA Deaminase Inhibitors via a fluorescence-based single-stranded DNA deaminase assay. [Related pubchem assays (depositor defined):AID493011, AID493024]; assay type: functional
Sequence of DNA dC->dU-editing enzyme APOBEC-3A (P31941 whole entry): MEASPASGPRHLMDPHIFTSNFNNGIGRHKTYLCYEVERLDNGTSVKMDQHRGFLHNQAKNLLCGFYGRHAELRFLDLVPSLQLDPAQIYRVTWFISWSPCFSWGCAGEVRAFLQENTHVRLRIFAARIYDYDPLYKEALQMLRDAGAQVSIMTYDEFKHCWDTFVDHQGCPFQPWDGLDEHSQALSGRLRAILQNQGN

[10] = target: DNA dC->dU-editing enzyme APOBEC-3G (Homo sapiens, UniProt Q9HC16); assay type: functional;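 also: Dose-response counterscreen measuring inhibition of APOBEC3G DNA deaminase activity, run while confirming APOBEC3A inhibitors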
Sequence of DNA dC->dU-editing enzyme APOBEC-3G (Q9HC16 whole entry): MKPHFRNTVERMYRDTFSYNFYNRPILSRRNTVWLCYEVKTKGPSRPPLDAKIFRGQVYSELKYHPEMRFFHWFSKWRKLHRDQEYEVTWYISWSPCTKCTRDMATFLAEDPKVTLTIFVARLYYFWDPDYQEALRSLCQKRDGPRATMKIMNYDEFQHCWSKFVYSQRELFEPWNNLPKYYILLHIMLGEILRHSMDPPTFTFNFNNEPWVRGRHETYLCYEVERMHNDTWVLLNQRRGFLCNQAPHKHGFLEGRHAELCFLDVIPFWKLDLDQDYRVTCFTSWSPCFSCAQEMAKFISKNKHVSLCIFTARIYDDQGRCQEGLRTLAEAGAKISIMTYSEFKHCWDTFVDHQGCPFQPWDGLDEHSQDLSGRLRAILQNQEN

[11] = target: T2, Epstein-Barr nuclear antigen 1 (Epstein-Barr virus (strain B95-8) (HHV-4) (Human herpesvirus 4), UniProt P03211); assay: inhibition of EBV nuclear antigen 1 DNA binding – biochemical, fluorescence polarization, 1536-well, dose response (AID 2381); design: species or system human gammaherpesvirus 4;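 also: fluorescence polarization of a Cy5 DNA probe bound by EBNA-1 protein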
T2 sequence (P03211 whole entry): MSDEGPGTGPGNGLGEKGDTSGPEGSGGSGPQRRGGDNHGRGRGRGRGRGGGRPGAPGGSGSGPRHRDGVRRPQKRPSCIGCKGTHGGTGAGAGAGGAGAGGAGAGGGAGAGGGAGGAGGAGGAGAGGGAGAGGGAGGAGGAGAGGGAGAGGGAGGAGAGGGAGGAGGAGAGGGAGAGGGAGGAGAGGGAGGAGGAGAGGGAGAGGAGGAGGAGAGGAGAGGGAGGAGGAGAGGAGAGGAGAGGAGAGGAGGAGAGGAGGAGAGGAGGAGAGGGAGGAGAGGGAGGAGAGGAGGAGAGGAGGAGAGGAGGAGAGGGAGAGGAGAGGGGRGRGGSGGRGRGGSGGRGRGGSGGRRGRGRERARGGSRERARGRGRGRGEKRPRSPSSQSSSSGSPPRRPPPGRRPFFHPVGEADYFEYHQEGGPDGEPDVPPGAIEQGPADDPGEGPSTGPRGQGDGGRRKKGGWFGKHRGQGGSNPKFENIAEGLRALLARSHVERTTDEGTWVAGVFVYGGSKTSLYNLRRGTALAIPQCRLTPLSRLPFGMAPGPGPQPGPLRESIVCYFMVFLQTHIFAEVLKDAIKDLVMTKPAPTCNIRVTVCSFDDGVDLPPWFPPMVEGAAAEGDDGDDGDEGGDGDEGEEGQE

[12] = target: T3, Lytic switch protein BZLF1 (Epstein-Barr virus (strain B95-8) (HHV-4) (Human herpesvirus 4), UniProt P03206); assay: inhibition of BZLF1 ZTA DNA binding – biochemical, fluorescence polarization, Epstein-Barr virus, 1536-well, counter-screen for EBNA-1 inhibitor project, dose response (AID 2377); design: species or system human gammaherpesvirus 4;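 also: fluorescence polarization of Cy5-labelled ZRE DNA probe bound by purified Zta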
T3 sequence (P03206 whole entry): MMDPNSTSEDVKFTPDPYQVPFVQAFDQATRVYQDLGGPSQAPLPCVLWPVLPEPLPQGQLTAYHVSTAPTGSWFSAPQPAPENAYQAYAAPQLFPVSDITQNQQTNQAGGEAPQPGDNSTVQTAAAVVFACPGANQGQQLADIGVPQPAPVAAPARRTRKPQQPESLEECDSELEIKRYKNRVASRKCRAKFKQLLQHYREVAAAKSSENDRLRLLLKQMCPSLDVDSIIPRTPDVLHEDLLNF

[13] = target: Voltage-dependent T-type calcium channel subunit alpha-1H (Homo sapiens, UniProt O95180); assay type: functional;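 also: channel activity triggered by adding a high calcium stimulation buffer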
Sequence of Voltage-dependent T-type calcium channel subunit alpha-1H (O95180 whole entry): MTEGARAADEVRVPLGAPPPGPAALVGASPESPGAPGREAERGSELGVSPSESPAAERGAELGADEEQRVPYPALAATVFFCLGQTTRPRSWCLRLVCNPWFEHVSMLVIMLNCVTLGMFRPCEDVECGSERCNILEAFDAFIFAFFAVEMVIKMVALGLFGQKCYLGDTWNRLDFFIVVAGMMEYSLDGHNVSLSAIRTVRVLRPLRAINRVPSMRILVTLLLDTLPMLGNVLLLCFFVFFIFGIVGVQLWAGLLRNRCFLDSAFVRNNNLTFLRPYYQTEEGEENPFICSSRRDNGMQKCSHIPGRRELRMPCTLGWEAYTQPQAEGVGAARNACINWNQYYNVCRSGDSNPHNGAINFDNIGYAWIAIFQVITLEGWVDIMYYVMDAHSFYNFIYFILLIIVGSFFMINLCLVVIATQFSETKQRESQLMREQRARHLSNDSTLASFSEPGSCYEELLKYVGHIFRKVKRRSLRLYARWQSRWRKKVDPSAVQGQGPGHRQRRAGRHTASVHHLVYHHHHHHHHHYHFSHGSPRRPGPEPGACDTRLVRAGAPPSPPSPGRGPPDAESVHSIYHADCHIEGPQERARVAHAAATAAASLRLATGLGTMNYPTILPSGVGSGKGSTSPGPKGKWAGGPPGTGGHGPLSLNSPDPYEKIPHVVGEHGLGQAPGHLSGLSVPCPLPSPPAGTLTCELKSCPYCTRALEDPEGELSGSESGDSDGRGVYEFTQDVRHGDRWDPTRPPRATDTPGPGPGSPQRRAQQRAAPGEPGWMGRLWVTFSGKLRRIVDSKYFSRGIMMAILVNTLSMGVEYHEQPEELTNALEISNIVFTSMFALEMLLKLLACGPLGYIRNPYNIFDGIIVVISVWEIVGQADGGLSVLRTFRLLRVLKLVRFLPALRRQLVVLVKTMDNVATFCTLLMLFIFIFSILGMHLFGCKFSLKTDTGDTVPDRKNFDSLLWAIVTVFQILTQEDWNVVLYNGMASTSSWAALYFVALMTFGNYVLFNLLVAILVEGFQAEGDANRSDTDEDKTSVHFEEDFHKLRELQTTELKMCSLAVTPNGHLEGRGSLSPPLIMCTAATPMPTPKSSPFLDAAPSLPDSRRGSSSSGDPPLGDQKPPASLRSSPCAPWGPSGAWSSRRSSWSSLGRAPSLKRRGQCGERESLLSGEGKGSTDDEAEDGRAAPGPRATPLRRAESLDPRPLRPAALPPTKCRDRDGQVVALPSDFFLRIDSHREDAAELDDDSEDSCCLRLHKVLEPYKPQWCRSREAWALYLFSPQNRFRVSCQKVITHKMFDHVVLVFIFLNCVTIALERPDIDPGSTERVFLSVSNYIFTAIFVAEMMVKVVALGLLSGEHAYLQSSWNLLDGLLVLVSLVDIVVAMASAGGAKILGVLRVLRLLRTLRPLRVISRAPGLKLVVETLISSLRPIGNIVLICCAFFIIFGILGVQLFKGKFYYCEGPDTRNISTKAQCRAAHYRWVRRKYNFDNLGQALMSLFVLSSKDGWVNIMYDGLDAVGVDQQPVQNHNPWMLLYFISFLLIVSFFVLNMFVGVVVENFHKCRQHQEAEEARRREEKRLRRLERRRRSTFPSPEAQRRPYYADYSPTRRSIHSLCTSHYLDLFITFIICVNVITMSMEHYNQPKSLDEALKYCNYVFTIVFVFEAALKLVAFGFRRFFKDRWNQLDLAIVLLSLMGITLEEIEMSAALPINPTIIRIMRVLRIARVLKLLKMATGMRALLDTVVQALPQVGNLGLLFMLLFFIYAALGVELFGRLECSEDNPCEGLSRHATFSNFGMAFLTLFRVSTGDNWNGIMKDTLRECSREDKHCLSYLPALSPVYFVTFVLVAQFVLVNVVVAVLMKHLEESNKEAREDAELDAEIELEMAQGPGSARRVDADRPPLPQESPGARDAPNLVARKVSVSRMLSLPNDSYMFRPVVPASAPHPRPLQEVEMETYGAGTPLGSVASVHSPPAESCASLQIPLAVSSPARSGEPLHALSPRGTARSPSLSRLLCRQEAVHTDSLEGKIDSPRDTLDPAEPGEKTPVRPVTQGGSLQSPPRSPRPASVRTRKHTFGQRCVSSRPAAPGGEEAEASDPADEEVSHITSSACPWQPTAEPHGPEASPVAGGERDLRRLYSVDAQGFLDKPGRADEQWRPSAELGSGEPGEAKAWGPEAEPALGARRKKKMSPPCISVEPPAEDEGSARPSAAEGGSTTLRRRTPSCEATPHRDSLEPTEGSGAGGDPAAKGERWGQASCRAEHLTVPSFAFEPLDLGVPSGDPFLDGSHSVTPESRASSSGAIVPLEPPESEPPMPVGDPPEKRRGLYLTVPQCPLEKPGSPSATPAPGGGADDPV

[14] = target: Peroxisome proliferator-activated receptor gamma/Nuclear receptor corepressor 2 (Homo sapiens, UniProt P37231+Q9Y618); assay: Counterscreen for NR2E3 inverse agonists: TR-FRET-based biochemical high throughput dose response assay to identify inverse agonists of the interaction between peroxisome proliferator-activated receptor gamma (PPARg) and nuclear receptor co-repressor 2 (NCOR2).; assay type: functional
[15] = target: Photoreceptor-specific nuclear receptor (Homo sapiens, UniProt Q9Y5X4); assay: ligands suppressing NR2E3 nuclear receptor activity – biochemical, TR-FRET, dose response (AID 463256); assay type: functional
Sequence of Photoreceptor-specific nuclear receptor (Q9Y5X4 whole entry): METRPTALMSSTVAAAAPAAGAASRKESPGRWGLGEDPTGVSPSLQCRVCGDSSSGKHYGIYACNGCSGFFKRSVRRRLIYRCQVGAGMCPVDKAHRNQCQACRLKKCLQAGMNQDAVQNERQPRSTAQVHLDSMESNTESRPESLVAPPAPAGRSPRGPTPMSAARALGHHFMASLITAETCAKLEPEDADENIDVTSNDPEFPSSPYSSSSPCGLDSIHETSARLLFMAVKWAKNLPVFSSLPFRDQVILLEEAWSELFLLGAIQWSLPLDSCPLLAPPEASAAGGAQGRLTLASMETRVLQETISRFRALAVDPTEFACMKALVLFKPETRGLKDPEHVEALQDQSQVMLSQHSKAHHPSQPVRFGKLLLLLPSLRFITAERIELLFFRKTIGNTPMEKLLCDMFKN

Prothrombin = Prothrombin (Homo sapiens, UniProt P00734); assay: Thrombin 1536 HTS Dose Response Confirmation. [Related pubchem assays: 1046 (Thrombin 1536 HTS; hits were confirmed in this assay)]; assay type: functional
[16] = target: T4, Carboxy-terminal domain RNA polymerase II polypeptide A small phosphatase 1 (Homo sapiens, UniProt Q9GZU7); assay: CTDSP1 inhibitors, concentration-response, biochemical, absorbance readout, ultra-high-throughput screen actives (AID 540297); assay type: functional
T4 sequence (Q9GZU7 whole entry): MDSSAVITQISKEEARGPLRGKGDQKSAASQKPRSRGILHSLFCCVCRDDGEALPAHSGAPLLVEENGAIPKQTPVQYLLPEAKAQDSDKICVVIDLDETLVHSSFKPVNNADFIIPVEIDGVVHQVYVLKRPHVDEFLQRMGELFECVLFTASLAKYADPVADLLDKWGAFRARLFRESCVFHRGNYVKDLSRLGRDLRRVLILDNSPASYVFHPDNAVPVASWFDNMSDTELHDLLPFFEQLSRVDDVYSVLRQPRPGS

[17] = target: FAD-linked sulfhydryl oxidase ALR (Homo sapiens, UniProt P55789); assay: ALR-catalysed DTT oxidation blockers – biochemical, H2O2 detection, luminescence, cherry-pick, dose response (AID 493248)
Sequence of FAD-linked sulfhydryl oxidase ALR (P55789 whole entry, the tested form may be a part): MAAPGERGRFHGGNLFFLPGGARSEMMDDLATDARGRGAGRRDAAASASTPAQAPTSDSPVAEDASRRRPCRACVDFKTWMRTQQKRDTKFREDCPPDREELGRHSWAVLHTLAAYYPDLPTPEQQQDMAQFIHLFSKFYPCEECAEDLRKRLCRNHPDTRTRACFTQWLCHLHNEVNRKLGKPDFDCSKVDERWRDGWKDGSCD

[18] = target: T5, Oxysterols receptor LXR-beta (Homo sapiens, UniProt P55055); assay type: functional, cell-based;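 also: Cell-based luminescence dose-response assay of agonist activity at LXR, run as a confirmatory counterscreen to a daf-12 agonist screen; HEK293 cells with Gal4-LXR fusion and GAL4-driven luciferase reporter; agonist potency from rising luciferase signal of a Gal4-LXR reporter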
T5 sequence (P55055 whole entry): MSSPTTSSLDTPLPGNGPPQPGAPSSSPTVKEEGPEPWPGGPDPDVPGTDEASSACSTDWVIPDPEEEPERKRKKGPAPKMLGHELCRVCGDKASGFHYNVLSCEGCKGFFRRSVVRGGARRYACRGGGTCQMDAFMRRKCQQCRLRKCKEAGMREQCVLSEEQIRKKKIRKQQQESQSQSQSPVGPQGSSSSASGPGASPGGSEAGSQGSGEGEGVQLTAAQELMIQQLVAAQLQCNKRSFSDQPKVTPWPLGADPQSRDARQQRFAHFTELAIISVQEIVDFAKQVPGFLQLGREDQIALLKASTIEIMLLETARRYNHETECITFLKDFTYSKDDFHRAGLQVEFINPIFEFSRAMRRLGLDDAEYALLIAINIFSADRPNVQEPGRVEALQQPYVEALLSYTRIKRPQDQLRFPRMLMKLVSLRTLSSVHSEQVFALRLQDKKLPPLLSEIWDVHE

[19] = Luminescence-based counterscreen assay for KLF5 inhibitors: dose response cell-based high throughput screening assay to identify cytotoxic compounds using the IEC-6 intestinal epithelial cell line. [Related pubchem assays: 1700 (Primary screen.), 1834 (Confirmation screen.), 1858 (Summary AID.), 1905 (Counterscreen.)]; assay type: functional
HEK293 = assay: EBV LMP1 TES2 canonical NF-kB signalling blockers – cell-based, HEK293, luciferase, cherry-pick, dose response (AID 588343); assay type: functional; details: Homo sapiens
[20] = P. falciparum Dd2 growth inhibitors, dose response, SYBR Green, cherry-picked samples (AID 1159567); assay type: functional, cell-based
[21] = toxicity to human hepatoma HepG2 cells – cell-based, cherry-picked samples, cytotoxicity control, dose response (AID 1159577); assay type: functional

COc1ccccc1/N=C/c1nc(-c2ccccc2)oc1OC(C)=O
IC50 (Coagulation factor XII): 48.8 µM (active)

C=CCNc1ncnc2c1[nH]c1ccc(C)cc12
IC50 (Coagulation factor XII): > 50 µM (inactive)

Cn1nnnc1Sc1ncnc2scc(-c3cccc(S(C)(=O)=O)c3)c12
AC50 (Paired box protein Pax-8): 2.03 µM (active)
AC50 [1]: 35.3 µM (active)
AC50 [2]: 14.9 µM (active)
AC50 [3]: 17.6 µM (active)
AC50 [4]: 4.13 µM (active)
AC50 [5]: 2.82 µM (active)
AC50 [6]: 25.8 µM (active)

Cc1ccccc1Oc1cc(-n2ncc(Cl)c(Cl)c2=O)ncn1
AC50 [7]: 3.94 µM (active)
AC50 (INS1): 3.02 µM (active)
IC50 [8]: 0.882 µM (active)
AC50 [1]: 4.25 µM (active)
AC50 [2]: 4.53 µM (active)
AC50 [3]: 1.65 µM (active)
AC50 [4]: 7.89 µM (active)
AC50 [5]: 9.42 µM (active)
AC50 [6]: 4.45 µM (active)

Cc1cc(=O)oc2c1c(C)nn2-c1nn[nH]n1
IC50 [9]: 1.76 µM (active)
IC50 [10]: 4.36 µM (active)

CC1=CC(=C(C#N)C#N)C=C(C)N1CCN1CCN(C(=O)Nc2ccc(Cl)c(Cl)c2)CC1
IC50 [11]: 16.3 µM (not active)
IC50 [12]: > 111 µM (not active)

O=C(CSc1nnnn1C1CCCCC1)N1c2ccccc2Sc2ccccc21
EC50 [13]: 7.42 µM (active)

O=C(Nc1ccc(-c2nc3ncccc3o2)cc1)c1ccc(Br)o1
IC50 [14]: 3.7 µM (active)
IC50 [15]: 3.5 µM (active)

Cc1ccsc1C(=O)Nc1nccs1
IC50 [14]: 27.3 µM (not active)
IC50 [15]: > 39.9 µM (not active)

Cc1sc2ncnc(SCC(=O)NNC(=O)COc3cccc4ccccc34)c2c1C
IC50 [11]: 2.02 µM (active)
IC50 [12]: > 111 µM (not active)

Cn1cc(C(=O)c2ccc(Cl)cc2Cl)cc1C(=O)NN=C(N)COc1ccc(F)cc1
IC50 (Prothrombin): 2.13 µM (active)
EC50 [13]: 2.48 µM (active)

CCC1=C/C(=C\c2ccc3c(c2)OCO3)C(=O)S1
IC50 (Coagulation factor XII): > 50 µM (inactive)

CCc1ccc(-c2nc(CN3CCC(C(=O)NCc4ccc(F)cc4)CC3)c(C)o2)cc1
EC50 [13]: 4.46 µM (active)

O=C(O)c1cc(-c2ccc3c(c2)OCO3)nc2ccccc12
AC50 [1]: 31 µM (active)

CCCc1nc(-c2cc3cc(C)ccc3[nH]c2=O)no1
IC50 [9]: 3.04 µM (active)
IC50 [10]: 2.41 µM (active)
IC50 [16]: 12.8 µM (active)

CC12CCC(C[N+](C)(C)C1)C2(C)C (centres undefined)
IC50 [9]: 2.69 µM (active)
IC50 [10]: 4.71 µM (active)
IC50 [16]: 5.62 µM (active)

COc1ccc(-c2cn3c4c(sc3n2)CCCC4)cc1
AC50 [17]: 0.325 µM (active)
EC50 [18]: > 67.5 µM (inactive)
EC50 (cells): > 67.5 µM (inactive)

CCOc1cc(Br)cc(/C=N/NC(=O)c2cccnc2)c1O
IC50 [19]: 16.8 µM (not active)
AC50 (HEK293): 21.5 µM (active)

O=[N+]([O-])c1cccc(/C=N/Nc2nc(NCc3ccccc3)nc(N3CCOCC3)n2)c1
IC50 [11]: 3.45 µM (active)
IC50 [12]: > 111 µM (not active)

COc1ccccc1NC(=O)N1CCCCN2[C@@H](CO)[C@H](c3ccc(C#Cc4ccccc4)cc3)[C@@H]2C1
AC50 [20]: < 0.3 µM (active)
AC50 [21]: 9.96 µM (active)
